In BigSolDB 2.1:

CCCCCCCCCCCCCCCCCC
Settings	solubility (mole fraction)
in cyclohexane, 281.45 K	0.214
in cyclohexane, 284.35 K	0.265
in cyclohexane, 287.2 K	0.35
in cyclohexane, 290.95 K	0.445
in cyclohexane, 294.8 K	0.576
in cyclohexane, 297.05 K	0.704
in ethanol, 283.05 K	0.0018
in ethanol, 285.75 K	0.0025
in ethanol, 287.7 K	0.0032
in ethanol, 289.25 K	0.0038
in ethanol, 291 K	0.0047
in ethanol, 292.6 K	0.0058
in ethanol, 294.35 K	0.0072
in ethanol, 296.2 K	0.0093
in ethanol, 297.95 K	0.0122
in ethanol, 299.45 K	0.0162
in n-heptane, 276.9 K	0.124
in n-heptane, 279 K	0.151
in n-heptane, 281.4 K	0.183
in n-heptane, 283.7 K	0.225
in n-heptane, 287.6 K	0.314
in n-heptane, 290.15 K	0.393
in n-heptane, 291.9 K	0.458
in n-heptane, 293.65 K	0.524
in n-heptane, 296.4 K	0.647
in n-heptane, 297.65 K	0.733

CCCCCCCCCCCCCCCCCCC
Settings	solubility (mole fraction)
in cyclohexane, 282.25 K	0.201
in cyclohexane, 283.95 K	0.233
in cyclohexane, 286.65 K	0.29
in cyclohexane, 289.65 K	0.359
in cyclohexane, 292.8 K	0.458
in cyclohexane, 295.65 K	0.553
in cyclohexane, 297 K	0.6
in cyclohexane, 301.75 K	0.75
in ethanol, 282.7 K	0.0011
in ethanol, 284.8 K	0.0014
in ethanol, 286 K	0.0016
in ethanol, 287.4 K	0.0019
in ethanol, 288.7 K	0.0022
in ethanol, 289.95 K	0.0025
in ethanol, 290.95 K	0.003
in ethanol, 292.45 K	0.0035
in ethanol, 293.75 K	0.0041
in ethanol, 295.6 K	0.0051
in ethanol, 297.25 K	0.0062
in ethanol, 300.85 K	0.0083
in ethanol, 303.85 K	0.0115
in n-heptane, 278.25 K	0.129
in n-heptane, 279.5 K	0.145
in n-heptane, 280.95 K	0.164
in n-heptane, 282.45 K	0.19
in n-heptane, 284.25 K	0.22
in n-heptane, 286.55 K	0.256
in n-heptane, 288.7 K	0.314
in n-heptane, 290.95 K	0.393
in n-heptane, 293.7 K	0.478
in n-heptane, 296.95 K	0.611
in n-heptane, 302.3 K	0.786
